From patent US20250040554A1, “NEW USES OF PHENMEDIPHAM AND HERBICIDAL COMBINATIONS COMPRISING PHENMEDIPHAM” (BAYER AKTIENGESELLSCHAFT, priority 2021, published 2025)

Experiments:
Type in all cases: in vivo
[1] = tested on: AMARE=Amaranthus retroflexus; assay: Weed control field trial AMARE; settings: 15 DAA
Description: (§1) The respective (combinations of) materials were applied to weed plants in the greenhouse or in the field at the respective growth stage indicated hereinafter for the different weed species mentioned below. The respective (combinations of) active ingredients were also applied to corn, cotton and soybean crop plants, and the selectivity (damage) in these crop plants rated (assessed).
(§2) Visual scoring of the damage to the trial plants took place after the time mentioned in the respective Table—indicated in number of Days After Application (DAA). Damage and development of all above-ground parts of the respective plants was recorded. Visual rating was done on a percentage scale in relation to the untreated control (100%=all plants dead; 50%=green plant biomass reduced by 50%, and 0%=no discernible difference=like control plot).
(§3) wherein • A, B=respective value in percent of active ingredient A at a dose rate of a g/ha, ingredient B at a dose rate of b g/ha • E^C=Expected value according to Colby (S. R. Colby; Weeds 15 (1967), 20-22) in % at a dose rate of a+b, each in g/ha • Δ=Difference (in %) between measured value E and expected value E^C (%) (measured value minus expected value)
After the harmful plants had emerged, they were treated, at the respective growth stage indicated, with the respective materials as indicated at a water application rate of 187 L/ha.
After the treatment (15 days after the treatment), the herbicidal activity of respective material was scored visually at the same time by comparing the differently treated plots with the untreated control plots. The score figures of the different plots were averaged.
(§4) The dose rates of herbicidal ingredients used in each case are indicated for the respective active ingredient and refer to the amount of active ingredient per hectare (g/ha).
The weed control activity of different (combinations of) herbicidal active ingredients was investigated in field trials for the following weed species: • AMARE=Amaranthus retroflexus • KCHSC=Kochia scoparia • PANRA=Panicum ramosum
The growth stage of AMARE was BBCH 19, the growth stage of KCHSC was BBCH 19 and the growth stage of PANRA was BBCH 22 at the time of application of the respective material.
Phenmedipham and the respective aroylcyclohexanedione herbicide were applied at varying application rates (Dose Rate) to the different species of weed plants. The results are shown in Tables 4a to 4d as the % control when assessed 15 days after application (DAA), respectively.
In all the trials of Tables 4a to 4d Mero® (rapeseed oil methyl ester) was added to the respective spray mixture in an amount corresponding to 1 L/ha for PMP, 1 L/ha for the respective aroylcyclohexanedione herbicide, and 2 L/ha for mixtures of PMP+the respective aroylcyclohexanedione herbicide.

[2] = tested on: EPHHL=Euphorbia heterophylla; assay: Weed control field trial EPHHL
Description: as §1, §2
(§5) The trials in the greenhouse were sprayed with an application volume of 300 L/ha with an automated track sprayer. The plots in the field were sprayed with an application volume of 140 L/ha with a hand held spray boom.
as §3
(§6) The growth stages of the different weed species are indicated according to the BBCH monograph “Growth stages of mono- and dicotyledonous plants”, 2nd edition, 2001, ed. Uwe Meier, Federal Biological Research Centre for Agriculture and Forestry (Biologische Bundesanstalt für Land und Forstwirtschaft).
(§7) After the harmful plants had emerged, they were treated, at the respective growth stage indicated, with the respective materials as indicated at a water application rate of 140 L/ha.
(§8) After the treatment (21 or 35 days after application of the respective material), the herbicidal activity of respective material was scored visually at the same time by comparing the differently treated plots with the untreated control plots. The score figures of the different plots were averaged.
as §4
(§9) The weed control activity of different (combinations of) herbicidal active ingredients was investigated in field trials for the following weed species: • AMAVI=Amaranthus viridis • IPOAO=Ipomoea aristolochiaefolia • EPHHL=Euphorbia heterophylla • BIDPI=Bidens pilosa • BRADC=Brachiaria decumbens • ELEIN=Eleusine indica • CCHEC=Cenchrus echinatus
(§10) The growth stage of AMAVI was BBCH 13, the growth stage of IPOAO was BBCH 15, the growth stage of EPHHL was BBCH 13, the growth stage of BIDPI was BBCH 14, the growth stage of BRADC was BBCH 23, the growth stage of ELEIN was BBCH 11 and the growth stage of CCHEC was BBCH 12 at the time of application of the respective material.
(§11) Phenmedipham and Mesotrione were applied at varying application rates (Dose Rate) to the different species of weed plants. The results are shown in Tables 3a to 3e as the % control when assessed 21 and 35 days after application (DAA), respectively.
(§12) In all the trials of Tables 3a to 3e Mero® (rapeseed oil methyl ester) was added to the respective spray mixture in an amount corresponding to 1 L/ha for PMP, 1 L/ha for MST, and 2 L/ha for mixtures of PMP+MST.

STEME=Stellaria media = assay: Greenhouse weed control trial STEME; settings: 25 DAA
Description: as §1, §2, §5
In greenhouse selectivity trials and trials herbicidal activity trials against weed plants were investigated in post-emergence application of the respective material(s).
Herbicidal activity against different weeds (undesired plants) was calculated as follows.
as §3
• measured value E is greater than E^C:->synergism (+Δ) • measured value E is equal to E^C:->additive effect • measured value E is smaller than E^C:->antagonism (−Δ)
The weed control activity of different (combinations of) materials was investigated in greenhouse trials for the following weed species: • STEME=Stellaria media • ECHCG=Echinochloa crus-galli • BROTE=Bromus tectorum
Phenmedipham amd Mesotrione were applied at varying application rates (Dose Rate) to the weed plant species STEME, ECHCG and BROTE. The results are shown in Tables 2a to 2c as the % control when assessed 25 days after application (25 DAA).
In all the trials of Table Tables 2a to 2c Mero® (rapeseed oil methyl ester) was added to the respective spray mixture in an amount corresponding to 1 L/ha for PMP, 1 L/ha for MST, and 2 L/ha for mixtures of PMP+MST.

AMAVI=Amaranthus viridis = assay: Weed control field trial AMAVI
Description: as §1, §2, §5, §3, §6, §7, §8, §4, §9, §10, §11, §12

CS(=O)(=O)c1ccc(C(=O)C2C(=O)CCCC2=O)c([N+](=O)[O-])c1 [MST, 2-[4-(methylsulfonyl)-2-nitrobenzoyl]cyclohexane-1,3-dione]
10%: % control AMAVI (AMAVI=Amaranthus viridis; 25 g/ha, 21 DAA) | % control AMAVI (AMAVI=Amaranthus viridis; 25 g/ha, 35 DAA) | % control AMAVI (AMAVI=Amaranthus viridis; 50 g/ha, 21 DAA) | % control AMAVI (AMAVI=Amaranthus viridis; 50 g/ha, 35 DAA)
89%: % control STEME (STEME=Stellaria media; 12.5 g/ha)
99%: % control STEME (STEME=Stellaria media; 25 g/ha) | % control STEME (STEME=Stellaria media; 50 g/ha) | % control STEME (STEME=Stellaria media; 75 g/ha)
30%: % control AMARE ([1]; 40 g/ha)
25%: % control AMARE ([1]; 20 g/ha)
45%: % control AMARE ([1]; 80 g/ha)
50%: % control AMARE ([1]; 100 g/ha)
17%: % control EPHHL ([2]; 50 g/ha, 21 DAA)
0%: % control EPHHL ([2]; 25 g/ha, 21 DAA) | % control EPHHL ([2]; 25 g/ha, 35 DAA) | % control EPHHL ([2]; 50 g/ha, 35 DAA)
40%: % control AMARE ([1]; 60 g/ha)

COC(=O)Nc1cccc(OC(=O)Nc2cccc(C)c2)c1 [PMP, 3-[(methoxyformyl)amino]phenyl (3-methylphenyl)carbamate]
77%: % control STEME (STEME=Stellaria media; 300 g/ha)
25%: % control STEME (STEME=Stellaria media; 125 g/ha)
0%: % control AMARE ([1]; 150 g/ha) | % control EPHHL ([2]; 75 g/ha, 21 DAA) | % control EPHHL ([2]; 75 g/ha, 35 DAA) | % control EPHHL ([2]; 100 g/ha, 21 DAA) | % control EPHHL ([2]; 100 g/ha, 35 DAA) | % control EPHHL ([2]; 125 g/ha, 21 DAA) | % control EPHHL ([2]; 125 g/ha, 35 DAA) | % control EPHHL ([2]; 250 g/ha, 21 DAA) | % control EPHHL ([2]; 250 g/ha, 35 DAA) | % control STEME (STEME=Stellaria media; 12.5 g/ha) | % control STEME (STEME=Stellaria media; 25 g/ha) | % control STEME (STEME=Stellaria media; 50 g/ha) | % control STEME (STEME=Stellaria media; 75 g/ha) | % control STEME (STEME=Stellaria media; 100 g/ha) | % control AMAVI (AMAVI=Amaranthus viridis; 75 g/ha, 21 DAA) | % control AMAVI (AMAVI=Amaranthus viridis; 75 g/ha, 35 DAA) | % control AMAVI (AMAVI=Amaranthus viridis; 100 g/ha, 21 DAA) | % control AMAVI (AMAVI=Amaranthus viridis; 100 g/ha, 35 DAA) | % control AMAVI (AMAVI=Amaranthus viridis; 125 g/ha, 21 DAA) | % control AMAVI (AMAVI=Amaranthus viridis; 125 g/ha, 35 DAA) | % control AMAVI (AMAVI=Amaranthus viridis; 250 g/ha, 21 DAA) | % control AMAVI (AMAVI=Amaranthus viridis; 250 g/ha, 35 DAA)
5%: % control AMARE ([1]; 300 g/ha)
